PubChem BioAssay AID2060623 (Molecular Pharmacology Branch, DTP, NCI, 2025)

Tested on: 227483-062-R1-J1-PDC complex spheroids with HUVEC/MSC, viability
Assay: Anticancer human tumor 227483-062-R1-J1-PDC patient-derived pancreatic carcinoma cell line growth inhibition [CLK]
Conditions: for IC50: curve of first compound; for viability, T/C: stronger effect = lower value
Outline: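 Patient-derived tumor cells grown as complex spheroids with HUVEC endothelial cells and mesenchymal stem cells, treated with drug combinations. Concentrations descend in half-log steps from near clinical Cmax, or from 10 microM if Cmax unknown.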

[1] = second compound 0.0316 µM, first compound 0.0316 µM
[2] = second compound 0.0316 µM, first compound 0.1 µM
[3] = second compound 0.0316 µM, first compound 0.316 µM
[4] = second compound 0.0316 µM, first compound 1 µM
[5] = second compound 0.0316 µM, first compound 3.16 µM
[6] = second compound 0.0316 µM, first compound 10 µM
[7] = second compound 0.1 µM, first compound 0.0316 µM
[8] = second compound 0.1 µM, first compound 0.1 µM
[9] = second compound 0.1 µM, first compound 0.316 µM
[10] = second compound 0.1 µM, first compound 1 µM
[11] = second compound 0.1 µM, first compound 3.16 µM
[12] = second compound 0.1 µM, first compound 10 µM
[13] = second compound 0.316 µM, first compound 0.0316 µM
[14] = second compound 0.316 µM, first compound 0.1 µM
[15] = second compound 0.316 µM, first compound 0.316 µM
[16] = second compound 0.316 µM, first compound 1 µM
[17] = second compound 0.316 µM, first compound 3.16 µM
[18] = second compound 0.316 µM, first compound 10 µM
[19] = second compound 1 µM, first compound 0.0316 µM
[20] = second compound 1 µM, first compound 0.1 µM
[21] = second compound 1 µM, first compound 0.316 µM
[22] = second compound 1 µM, first compound 1 µM
[23] = second compound 1 µM, first compound 3.16 µM
[24] = second compound 1 µM, first compound 10 µM
[25] = second compound 3.16 µM, first compound 0.0316 µM
[26] = second compound 3.16 µM, first compound 0.1 µM
[27] = second compound 3.16 µM, first compound 0.316 µM
[28] = second compound 3.16 µM, first compound 1 µM
[29] = second compound 3.16 µM, first compound 3.16 µM
[30] = second compound 3.16 µM, first compound 10 µM
[31] = second compound 10 µM, first compound 0.0316 µM
[32] = second compound 10 µM, first compound 0.1 µM
[33] = second compound 10 µM, first compound 0.316 µM
[34] = second compound 10 µM, first compound 1 µM
[35] = second compound 10 µM, first compound 3.16 µM
[36] = second compound 10 µM, first compound 10 µM
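Further: spheroids exposed to compounds for seven days before readout.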
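Wherever viability, T/C is given: percent of DMSO vehicle control luminescence as 100% viability.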

Compound: CC(=O)O[C@H]1C(=O)[C@@]2(C)[C@H]([C@H](OC(=O)c3ccccc3)[C@]3(O)C[C@H](OC(=O)[C@H](O)[C@@H](NC(=O)c4ccccc4)c4ccccc4)C(C)=C1C3(C)C)[C@]1(OC(C)=O)CO[C@@H]1C[C@@H]2O + CNC(=O)c1ccc(Nc2nc(OC3CCCC3)c3c(-c4ccc5nc(C)oc5c4)c[nH]c3n2)c(OC)c1
- IC50 (second compound 0.0316 µM): < 31.6 nM
- IC50 (second compound 0.1 µM): > 10000 nM
- IC50 (second compound 0.316 µM): > 10000 nM
- IC50 (second compound 1 µM): > 10000 nM
- IC50 (second compound 3.16 µM): < 31.6 nM
- IC50 (second compound 10 µM): < 31.6 nM
- viability, T/C [1]: 29.7%
- viability, T/C [2]: 27.1%
- viability, T/C [3]: 35.6%
- viability, T/C [4]: 43.4%
- viability, T/C [5]: 48.3%
- viability, T/C [6]: 75.9%
- viability, T/C [7]: 53.8%
- viability, T/C [8]: 62.1%
- viability, T/C [9]: 71.1%
- viability, T/C [10]: 85.1%
- viability, T/C [11]: 77.1%
- viability, T/C [12]: 101%
- viability, T/C [13]: 70.4%
- viability, T/C [14]: 95.6%
- viability, T/C [15]: 98.9%
- viability, T/C [16]: 101%
- viability, T/C [17]: 99.3%
- viability, T/C [18]: 95.8%
- viability, T/C [19]: 60.8%
- viability, T/C [20]: 69.2%
- viability, T/C [21]: 72.7%
- viability, T/C [22]: 101%
- viability, T/C [23]: 96.7%
- viability, T/C [24]: 89.4%
- viability, T/C [25]: 46.7%
- viability, T/C [26]: 58.9%
- viability, T/C [27]: 62.9%
- viability, T/C [28]: 61.5%
- viability, T/C [29]: 70.1%
- viability, T/C [30]: 54.6%
- viability, T/C [31]: 37.9%
- viability, T/C [32]: 49.9%
- viability, T/C [33]: 50.3%
- viability, T/C [34]: 61.4%
- viability, T/C [35]: 49.5%
- viability, T/C [36]: 55.5%

Compound: CCc1c2c(nc3ccc(O)cc13)-c1cc3c(c(=O)n1C2)COC(=O)[C@]3(O)CC + CNC(=O)c1ccc(Nc2nc(OC3CCCC3)c3c(-c4ccc5nc(C)oc5c4)c[nH]c3n2)c(OC)c1
- IC50 (second compound 0.0316 µM): 205 nM
- IC50 (second compound 0.1 µM): 176 nM
- IC50 (second compound 0.316 µM): 64 nM
- IC50 (second compound 1 µM): 11.4 nM
- IC50 (second compound 3.16 µM): < 3.16 nM
- IC50 (second compound 10 µM): < 3.16 nM
- viability, T/C (second compound 0.0316 µM, first compound 0.00316 µM): 121%
- viability, T/C (second compound 0.0316 µM, first compound 0.01 µM): 96.1%
- viability, T/C [1]: 81.2%
- viability, T/C [2]: 60.5%
- viability, T/C [3]: 41.5%
- viability, T/C [4]: 32.5%
- viability, T/C (second compound 0.1 µM, first compound 0.00316 µM): 111%
- viability, T/C (second compound 0.1 µM, first compound 0.01 µM): 97.1%
- viability, T/C [7]: 69.3%
- viability, T/C [8]: 64.4%
- viability, T/C [9]: 42.1%
- viability, T/C [10]: 19.8%
- viability, T/C (second compound 0.316 µM, first compound 0.00316 µM): 65.2%
- viability, T/C (second compound 0.316 µM, first compound 0.01 µM): 84.3%
- viability, T/C [13]: 62.2%
- viability, T/C [14]: 37.8%
- viability, T/C [15]: 24.1%
- viability, T/C [16]: 5.82%
- viability, T/C (second compound 1 µM, first compound 0.00316 µM): 61.2%
- viability, T/C (second compound 1 µM, first compound 0.01 µM): 54%
- viability, T/C [19]: 34.1%
- viability, T/C [20]: 19.4%
- viability, T/C [21]: 10.4%
- viability, T/C [22]: 1.96%
- viability, T/C (second compound 3.16 µM, first compound 0.00316 µM): 44%
- viability, T/C (second compound 3.16 µM, first compound 0.01 µM): 35.2%
- viability, T/C [25]: 24.2%
- viability, T/C [26]: 12.6%
- viability, T/C [27]: 7.58%
- viability, T/C [28]: 2.02%
- viability, T/C (second compound 10 µM, first compound 0.00316 µM): 33.4%
- viability, T/C (second compound 10 µM, first compound 0.01 µM): 32.4%
- viability, T/C [31]: 17.1%
- viability, T/C [32]: 11.4%
- viability, T/C [33]: 6.34%
- viability, T/C [34]: 2.19%

Compound: COc1cccc2c1C(=O)c1c(O)c3c(c(O)c1C2=O)CC(O)(C(=O)CO)CC3OC1CC(N)C(O)C(C)O1 (stereo not given) + CNC(=O)c1ccc(Nc2nc(OC3CCCC3)c3c(-c4ccc5nc(C)oc5c4)c[nH]c3n2)c(OC)c1
- IC50 (second compound 0.0316 µM): 277 nM
- IC50 (second compound 0.1 µM): 229 nM
- IC50 (second compound 0.316 µM): 177 nM
- IC50 (second compound 1 µM): 114 nM
- IC50 (second compound 3.16 µM): < 31.6 nM
- IC50 (second compound 10 µM): < 31.6 nM
- viability, T/C [1]: 84.4%
- viability, T/C [2]: 91.2%
- viability, T/C [3]: 43.6%
- viability, T/C [4]: 19.9%
- viability, T/C [5]: 1.83%
- viability, T/C [6]: 10.3%
- viability, T/C [7]: 81.2%
- viability, T/C [8]: 79.9%
- viability, T/C [9]: 38.1%
- viability, T/C [10]: 15%
- viability, T/C [11]: 2.41%
- viability, T/C [12]: 10.7%
- viability, T/C [13]: 81.7%
- viability, T/C [14]: 66.2%
- viability, T/C [15]: 33.8%
- viability, T/C [16]: 9.76%
- viability, T/C [17]: 2.28%
- viability, T/C [18]: 9.14%
- viability, T/C [19]: 66.9%
- viability, T/C [20]: 53.5%
- viability, T/C [21]: 20.1%
- viability, T/C [22]: 4.28%
- viability, T/C [23]: 2.52%
- viability, T/C [24]: 5.99%
- viability, T/C [25]: 45.1%
- viability, T/C [26]: 35.9%
- viability, T/C [27]: 11.5%
- viability, T/C [28]: 2.71%
- viability, T/C [29]: 3.57%
- viability, T/C [30]: 5.5%
- viability, T/C [31]: 41.7%
- viability, T/C [32]: 28.1%
- viability, T/C [33]: 11.3%
- viability, T/C [34]: 2.5%
- viability, T/C [35]: 3.15%
- viability, T/C [36]: 6.7%

Compound: Nc1ccn(C2OC(CO)C(O)C2(F)F)c(=O)n1 (stereo not given) + CNC(=O)c1ccc(Nc2nc(OC3CCCC3)c3c(-c4ccc5nc(C)oc5c4)c[nH]c3n2)c(OC)c1
- IC50 (second compound 0.0316 µM): 67.5 nM
- IC50 (second compound 0.1 µM): 78.5 nM
- IC50 (second compound 0.316 µM): 52.4 nM
- IC50 (second compound 1 µM): < 31.6 nM
- IC50 (second compound 3.16 µM): < 31.6 nM
- IC50 (second compound 10 µM): < 31.6 nM
- viability, T/C [1]: 77.5%
- viability, T/C [2]: 34.3%
- viability, T/C [3]: 34.2%
- viability, T/C [4]: 34.4%
- viability, T/C [5]: 28.2%
- viability, T/C [6]: 20%
- viability, T/C [7]: 93.3%
- viability, T/C [8]: 36.2%
- viability, T/C [9]: 35.6%
- viability, T/C [10]: 34.2%
- viability, T/C [11]: 26.8%
- viability, T/C [12]: 19.3%
- viability, T/C [13]: 62.2%
- viability, T/C [14]: 32.6%
- viability, T/C [15]: 27.1%
- viability, T/C [16]: 28.9%
- viability, T/C [17]: 21.8%
- viability, T/C [18]: 15.8%
- viability, T/C [19]: 49.2%
- viability, T/C [20]: 28.6%
- viability, T/C [21]: 20.2%
- viability, T/C [22]: 21.1%
- viability, T/C [23]: 15.5%
- viability, T/C [24]: 12.6%
- viability, T/C [25]: 29%
- viability, T/C [26]: 20.8%
- viability, T/C [27]: 19.6%
- viability, T/C [28]: 15.9%
- viability, T/C [29]: 13.3%
- viability, T/C [30]: 11%
- viability, T/C [31]: 23.6%
- viability, T/C [32]: 22%
- viability, T/C [33]: 16.7%
- viability, T/C [34]: 15.2%
- viability, T/C [35]: 13.6%
- viability, T/C [36]: 9.42%

Compound: O=c1[nH]cc(F)c(=O)[nH]1 + CNC(=O)c1ccc(Nc2nc(OC3CCCC3)c3c(-c4ccc5nc(C)oc5c4)c[nH]c3n2)c(OC)c1
- IC50 (second compound 0.0316 µM): 1740 nM
- IC50 (second compound 0.1 µM): 1020 nM
- IC50 (second compound 0.316 µM): 931 nM
- IC50 (second compound 1 µM): 320 nM
- IC50 (second compound 3.16 µM): < 31.6 nM
- IC50 (second compound 10 µM): < 31.6 nM
- viability, T/C [1]: 94.6%
- viability, T/C [2]: 88.3%
- viability, T/C [3]: 108%
- viability, T/C [4]: 62.9%
- viability, T/C [5]: 41%
- viability, T/C [6]: 31.2%
- viability, T/C [7]: 104%
- viability, T/C [8]: 93.8%
- viability, T/C [9]: 73.8%
- viability, T/C [10]: 50.1%
- viability, T/C [11]: 38.4%
- viability, T/C [12]: 36%
- viability, T/C [13]: 71.4%
- viability, T/C [14]: 91.7%
- viability, T/C [15]: 66.5%
- viability, T/C [16]: 47.5%
- viability, T/C [17]: 37.1%
- viability, T/C [18]: 24.5%
- viability, T/C [19]: 80.6%
- viability, T/C [20]: 56.2%
- viability, T/C [21]: 60.5%
- viability, T/C [22]: 32.5%
- viability, T/C [23]: 22.4%
- viability, T/C [24]: 18.7%
- viability, T/C [25]: 46.7%
- viability, T/C [26]: 46.9%
- viability, T/C [27]: 41.2%
- viability, T/C [28]: 26.4%
- viability, T/C [29]: 18.1%
- viability, T/C [30]: 13.8%
- viability, T/C [31]: 44.8%
- viability, T/C [32]: 39%
- viability, T/C [33]: 33.1%
- viability, T/C [34]: 23.5%
- viability, T/C [35]: 18.9%
- viability, T/C [36]: 14.6%
